Results from patent publication US10759758B2, “Polymorphic form of N-{6-(hydroxypropan-2-yl)-2-[2-(methylsulphonyl)ethyl]-2H-indazol-5-yl}-6-(trifluoromethyl)pyridine-2-carboxamide” (Bayer Pharma Aktiengesellschaft, priority 2016, dated 2020).

Assay: Thermodynamic stability of the solid forms of compound (I)
Type: physicochemical
Conditions: compared with the other solid forms of compound (I)

SMILES: CC(C)(O)c1cc2nn(CCS(C)(=O)=O)cc2cc1NC(=O)c1cccc(C(F)(F)F)n1 [Polymorphic form B, N-{6-(2-Hydroxypropan-2-yl)-2-[2-(methylsulphonyl)ethyl]-2H-indazol-5-yl}-6-(trifluoromethyl)pyridine-2-carboxamide]
- thermodynamic stability among solid forms: thermodynamically stable form
